How the values were obtained:
[1] = tested on: CD3/CD28-stimulated effector cells (T cells from healthy donors' PBMCs); assay: T cell proliferation assay (3H thymidine incorporation), CD3/CD28-stimulated T cells; format: cell-based, human; conditions: for Thymidine incorporation(CPM): log[Agonist]
Description: (§1) Briefly, human cells were isolated from healthy donors' PBMCs by using EasySep™ Human T Cell Enrichment Kit (Stemcell Technologies) according to manufacturer's instruction. […] Culture supernatants were collected on Day 2 or 3 for cytokine analysis. Plates were then harvested on DNA specific filter papers (Perkin Elmer) using Harvester96 (Tomtec Life Sciences). The radiolabeled filters were covered with beta scintillation liquid (Perkin Elmer) and read in Microbeta® counter plates (Perkin Elmer). ^3H Thymidine was pulsed on Day 2 for T cell proliferation assay.

CT26 colon carcinoma = assay: In vivo tumor efficacy, CT26 model, PF-06463922 with anti-PD-L1 (Example 2); parameters: species or system Balb/c mice; conditions: for Average tumor volume: anti-PD-L1 10 mg/kg i.p. every 3 days x3, PF-06463922 3 mg/kg orally once daily; for Effect on CT26 tumor growth: treatment started in tumors of 100-150 mm^3, compared with isotype
Description: Both CT26 colon carcinoma and B16 melonoma cell lines have published mutanome and transcriptome data, with no known ALK fusion events or oncogenic mutations. Castle et al, BMC Genomics, 15:190 (13 Mar. 2014); Castle et al, CAN 11:3722 (11 Jan. 2012). […] The percentage of TGI was defined as 1-(Tumor volumnTreated/Tumor volumnisotype control)×100.
(§2) The CT26 colon carcinoma cell line was purchased from ATCC® CRL-2638™. B16-F10 (‘B16’) melonoma cell lines were purchased from ATCC® CRL-6475™. Cells were cultured in DMEM medium supplemented with 10% fetal bovine serum, and 100 I.U./mL penicillin/streptomycin at 37° C. in an atmosphere of 5% CO2 in air, and IMPACT-tested for pathogens at Research Animal Diagnostic Laboratory (RADIL) (Columbia, Mo.). Pathogen-free cells growing in an exponential growth phase were harvested and used for tumor inoculation.
(§3) Rat IgG2a isotype control were purchased from BioXcell (clone 2A3)(West Lebanon, N.H.).
(§4) For the second study, C57BL/6 mice were inoculated subcutaneously in the right lower flank with 0.1 ml of 1×10^6 B16 skin melanoma cells. When tumor bearing mice achieved a mean tumor volume of 100 to 150 mm^3, mice were randomly assigned to 1 of 4 treatment groups, n=10.

B16 skin melanoma = assay: In vivo tumor efficacy, B16 melanoma model, PF-06463922 with anti-PD-L1 (Example 2); parameters: species or system C57BL/6 mice; conditions: end of study (day 22 post tumor implant), n=10
Protocol: as §2, §3, §4

activated T cells = assay: T cell viability, Cell-Titer Glo Luminescent Cell Viability Assay; format: cell-based, human; conditions: for Luciferase RLU (T cell viability): log[Agonist]
Protocol: as §1, with “instruction. […] Cells were cultured in RPMI 1640 medium supplemented with 10% FCS and 100 I.U./mL penicillin/streptomycin in humidified incubator at 37° C. with 5% CO2.” for “instruction.”, “assay. The impact by sunitinib and axitinib on T cell proliferation and viability were repeated as previously published (FIGS. 1A and 1B).” for “assay.”
Cell viability was measured by Cell-Titer Glo Luminescent Cell Viability Assay® (Promega, Madison). […] Table 4 below provides the Luciferase RLU values reflecting T cell viability for each of the respective inhibitors.

[2] = tested on: peripheral blood mononuclear cells (PMBCs); conditions: published studies (Stehle et al. 2013); cited from earlier work

SMILES | Thymidine incorporation(CPM) ([1]; μM: 0) | Thymidine incorporation(CPM) ([1]; μM: 1) | Thymidine incorporation(CPM) ([1]; μM: 2) | Thymidine incorporation(CPM) ([1]; μM: 3) | Thymidine incorporation(CPM) ([1]; μM: −1) | Thymidine incorporation(CPM) ([1]; μM: −2) | Thymidine incorporation(CPM) ([1]; μM: −3) | Luciferase RLU (T cell viability) (activated T cells; μM: 0) | Luciferase RLU (T cell viability) (activated T cells; μM: 1) | Luciferase RLU (T cell viability) (activated T cells; μM: 2) | Luciferase RLU (T cell viability) (activated T cells; μM: 3) | Luciferase RLU (T cell viability) (activated T cells; μM: −1) | Luciferase RLU (T cell viability) (activated T cells; μM: −2) | Luciferase RLU (T cell viability) (activated T cells; μM: −3) | further results
C[C@H]1Oc2cc(cnc2N)-c2c(nn(C)c2C#N)CN(C)C(=O)c2ccc(F)cc21 [PF-06463922, (10R)-7-amino-12-fluoro-2,10,16-trimethyl-15-oxo-10,15,16,17-tetrahydro-2H-8,4-(metheno)pyrazolo[4,3-h][2,5,11]benzoxadiazacyclotetradecine-3-carbonitrile] | 399866.7 ± 10135.82 CPM | 364978.7 ± 37421.4 CPM | 258875.3 ± 25269.1 CPM | 94120.66 ± 2728.719 CPM | 416579.3 ± 23523.21 CPM | 411422.3 ± 13377.95 CPM | 401448.3 ± 37205.07 CPM | 88.53 ± 0.7567 RLU | 89.118 ± 1.283 RLU | 88.6231 ± 1.573 RLU | 40.36 ± 9.736 RLU | 97.8625 ± 2.288 RLU | 95.86 ± 0.6202 RLU | 98.17 ± 0.6606 RLU | Effect on T cell proliferation ([1]; activated T cells, FIG. 1A): did not have adverse effects on T cell proliferation; Average tumor volume (CT26 colon carcinoma; Day 5): 181.85 ± 12.6828 mm^3; Average tumor volume (CT26 colon carcinoma; Day 9): 253.14 ± 34.78 mm^3; Average tumor volume (CT26 colon carcinoma; Day 14): 548.44 ± 96.03 mm^3; Average tumor volume (CT26 colon carcinoma; Day 17): 962.02 ± 180.1961 mm^3; Average tumor volume (CT26 colon carcinoma; Day 21): 1696.96 ± 285.9975 mm^3; tumor growth inhibition (TGI) (CT26 colon carcinoma; day 21 post tumor inoculation, relative to the isotype control): 28.3%; Effect on CT26 tumor growth (CT26 colon carcinoma): partially effective; Effect on CT26 tumor growth (CT26 colon carcinoma; listed as ALK inhibitor): did not consistently inhibit CT26 tumor growth; animals with a complete response (tumor free) (B16 skin melanoma): no animals having a complete response; Effect on T cell viability (activated T cells; FIG. 1B): did not result in dose-dependent decreases in T cell viability
CNC(=O)c1ccccc1Sc1ccc2c(/C=C/c3ccccn3)n[nH]c2c1 [Axitinib, axitinib] | 437978 ± 5214.787 CPM | 385672.3 ± 9004.015^ CPM | 300379.3 ± 25594 CPM | 291128.7 ± 31076.09^ CPM | 407235 ± 52888.48 CPM | 408592.3 ± 11690 CPM | 394950 ± 19054.05 CPM | 92.63 ± 0.5221 RLU | 89.79 ± 1.428 RLU | 86.63 ± 0.8779 RLU | 78.81 ± 3.223 RLU | 91.35 ± 1.526 RLU | 95.54 ± 3.15 RLU | 97.36 ± 1.186 RLU | Toxicity in peripheral blood mononuclear cells [2]: only minor toxicity effects

— patent US20180282415A1, “Combination of a PD-1 Axis Binding Antagonist and an ALK Inhibitor for Treating ALK-Negative Cancer” (Merck Patent GmbH, priority 2015, published 2018)
